Legend:
Plasmodium falciparum [1] = test: Antiplasmodial activity against CQ-sensitive Plasmodium falciparum D6; type: functional
Plasmodium falciparum [2] = test: Antiplasmodial activity against CQ-resistant Plasmodium falciparum Dd2; type: functional, organism-based; conditions: for IC50: Plasmodium falciparum, Dd2
Plasmodium falciparum [3] = test: Antiplasmodial activity against CQ-resistant Plasmodium falciparum 7G8; type: functional
Plasmodium falciparum [4] = test: Antiplasmodial activity against CQ-resistant Plasmodium falciparum K1; type: functional, organism-based
Plasmodium falciparum [5] = test: Antiplasmodial activity against CQ-resistant Plasmodium falciparum W2 assessed as inhibition of parasite growth; type: functional, organism-based
Plasmodium falciparum [6] = test: Antiplasmodial activity against CQ-sensitive Plasmodium falciparum 3D7; type: functional, organism-based; conditions: for IC50: Plasmodium falciparum, 3D7
Plasmodium berghei = test: Antimalarial activity against Plasmodium berghei infected in human HuH7 cells assessed as inhibition of liver cell infection; type: functional, organism-based; conditions: Huh-7, Liver
[7] = Inhibition of beta-hematin formation; type: physicochemical

| Structure (SMILES) | IC50 (Plasmodium falciparum [5]) [nM] | IC50 (Plasmodium falciparum [6]) [nM] | further results |
| --- | --- | --- | --- |
| Clc1ccc2c(NCCN3CCN(C(c4ccccc4)c4ccccc4)CC3)ccnc2c1 |  |  | Activity (Plasmodium falciparum [1]): 0.5 nM; Activity (Plasmodium falciparum [2]): 1 nM; Activity (Plasmodium falciparum [3]): 2 nM |
| Clc1ccc2c(NCCCN3CCN(C(c4ccccc4)c4ccccc4)CC3)ccnc2c1 |  |  | Activity (Plasmodium falciparum [1]): 0.5 nM; Activity (Plasmodium falciparum [2]): 1 nM; Activity (Plasmodium falciparum [3]): 2 nM |
| Clc1ccc2c(NCCCN3CCN(CC(c4ccccc4)c4ccccc4)CC3)ccnc2c1 |  |  | Activity (Plasmodium falciparum [1]): 0.5 nM; Activity (Plasmodium falciparum [2]): 1 nM; Activity (Plasmodium falciparum [3]): 2 nM |
| Clc1ccc2c(NCCCN3CCN(C4C5CC6CC(C5)CC4C6)CC3)ccnc2c1 (stereo not given) |  |  | Activity (Plasmodium falciparum [1]): 0.5 nM; Activity (Plasmodium falciparum [2]): 1 nM; Activity (Plasmodium falciparum [3]): 2 nM |
| Clc1ccc2c(NCCCCN3CCN(C(c4ccccc4)c4ccccc4)CC3)ccnc2c1 |  |  | Activity (Plasmodium falciparum [1]): 0.5 nM; Activity (Plasmodium falciparum [2]): 1 nM; Activity (Plasmodium falciparum [3]): 2 nM |
| CCCN1CNc2cc(Nc3ccnc4cc(Cl)ccc34)ccc2C1 | 130 |  | IC50 (Plasmodium falciparum [4]): 220 nM |
| Clc1ccc2c(Nc3ccc4c(c3)NCN(Cc3ccccc3)C4)ccnc2c1 | 130 |  | IC50 (Plasmodium falciparum [4]): 220 nM |
| CCN1CNc2cc(Nc3ccnc4cc(Cl)ccc34)ccc2C1 | 130 |  | IC50 (Plasmodium falciparum [4]): 220 nM |
| O=C(/C=C/c1ccccc1)N[C@@H](CCCCCC(=O)NO)C(=O)Nc1cccc2cccnc12 |  | 13 | IC50 (Plasmodium falciparum [2]): 33 nM |
| CN(C)c1ccc(C(=O)N[C@@H](CCCCCC(=O)NO)C(=O)Nc2cccc3cccnc23)cc1 |  | 13 | IC50 (Plasmodium falciparum [2]): 33 nM |
| O=C1/C(=C/c2ccc([N+](=O)[O-])cc2)SC(=S)N1CCCNc1ccnc2cc(Cl)ccc12 |  | < 100 |  |
| O=C1/C(=C/c2ccccc2[N+](=O)[O-])SC(=S)N1CCCNc1ccnc2cc(Cl)ccc12 |  | < 100 |  |
| COc1cc(/C=C2\SC(=S)N(CCNc3ccnc4cc(Cl)ccc34)C2=O)cc(OC)c1OC |  | < 100 |  |
| CN(C)c1ccc(/C=C2\SC(=S)N(CCCCNc3ccnc4cc(Cl)ccc34)C2=O)cc1 |  | < 100 |  |
| COc1cc(/C=C2\SC(=S)N(CCCCNc3ccnc4cc(Cl)ccc34)C2=O)cc(OC)c1OC |  | < 100 |  |
| COc1cc(/C=C2\SC(=S)N(CCCNc3ccnc4cc(Cl)ccc34)C2=O)cc(OC)c1OC |  | < 100 |  |
| Cc1c(O)c(=O)ccn1CCCCNc1ccnc2cc(Cl)ccc12 |  | < 1000 |  |
| Cc1c(O)c(=O)ccn1CCCCCCNc1ccnc2cc(Cl)ccc12 |  | 4 |  |
| CCc1c(O)c(=O)ccn1CCCCCCNc1ccnc2cc(Cl)ccc12 |  | < 1000 |  |
| COc1c(C)n(CCCCCCNc2ccnc3cc(Cl)ccc23)ccc1=O |  | < 1000 |  |
| COc1c(C)n(CCCCNc2ccnc3cc(Cl)ccc23)ccc1=O |  | < 1000 |  |
| CCc1c(OCc2ccccc2)c(=O)ccn1CCCCNc1ccnc2cc(Cl)ccc12 |  | < 1000 |  |

| Structure (SMILES) | IC50 (Plasmodium falciparum [5]) [nM] | IC50 (Plasmodium falciparum [6]) [nM] | further results |
| --- | --- | --- | --- |
| CCc1c(OCc2ccccc2)c(=O)ccn1CCCCCCNc1ccnc2cc(Cl)ccc12 |  | < 1000 |  |
| CCc1c(O)c(=O)ccn1CCCNc1ccnc2cc(Cl)ccc12 |  | < 1000 |  |
| CCc1c(O)c(=O)ccn1CCCCNc1ccnc2cc(Cl)ccc12 |  | < 1000 |  |
| O=C(NCCCCNc1ccnc2cc(Cl)ccc12)N[C@H]1C(=O)N(C2CCCCC2)[C@H]1/C=C/c1ccccc1 | 42 |  |  |
| O=C(NCCCCCCNc1ccnc2cc(Cl)ccc12)N[C@H]1C(=O)N(C2CCCCC2)[C@H]1/C=C/c1ccccc1 | 42 |  |  |
| Cc1ccc(N2C(=O)[C@H](NC(=O)NCCCCNc3ccnc4cc(Cl)ccc34)[C@@H]2/C=C/c2ccccc2)cc1 | 42 |  |  |
| O=C(NCCNc1ccnc2cc(Cl)ccc12)C(=O)N[C@@H]1C(=O)N(C2CCCCC2)[C@@H]1/C=C/c1ccccc1 | 34 |  |  |
| O=C(NCCCNc1ccnc2cc(Cl)ccc12)C(=O)N[C@@H]1C(=O)N(C2CCCCC2)[C@@H]1/C=C/c1ccccc1 | 34 |  |  |
| O=C(NCCCCNc1ccnc2cc(Cl)ccc12)C(=O)N[C@@H]1C(=O)N(C2CCCCC2)[C@@H]1/C=C/c1ccccc1 | 34 |  |  |
| O=C(NCCCCCCNc1ccnc2cc(Cl)ccc12)C(=O)N[C@@H]1C(=O)N(C2CCCCC2)[C@@H]1/C=C/c1ccccc1 | 34 |  |  |
| Cc1ccc(N2C(=O)[C@@H](NC(=O)C(=O)NCCNc3ccnc4cc(Cl)ccc34)[C@H]2/C=C/c2ccccc2)cc1 | 34 |  |  |
| Cc1ccc(N2C(=O)[C@@H](NC(=O)C(=O)NCCCNc3ccnc4cc(Cl)ccc34)[C@H]2/C=C/c2ccccc2)cc1 | 34 |  |  |
| COc1cc(NC(C)CCCNC(=O)C2CCC3(CC2)OOC2(OO3)C3CC4CC(C3)CC2C4)c2ncccc2c1 (stereo not given) |  |  | IC50 (Plasmodium berghei): 330 nM |
| COc1cc(NC(C)CCCNCC2CCC3(CC2)OOC2(OO3)C3CC4CC(C3)CC2C4)c2ncccc2c1 (stereo not given) | 21 |  | IC50 (Plasmodium berghei): 330 nM |
| COc1cc(NC(C)CCCNC2CCC3(CC2)OOC2(OO3)C3CC4CC(C3)CC2C4)c2ncccc2c1 (stereo not given) | 21 |  |  |
| O=C(N[C@H](c1ccccc1)[C@H](O)C(=O)NCc1cn(CNc2ccnc3cc(Cl)ccc23)nn1)c1ccccc1 | 280 |  | IC50 (Plasmodium falciparum [4]): 390 nM |
| Cc1ccc(N2C(=O)[C@@H](NC(=O)C(=O)NCCCCCCNc3ccnc4cc(Cl)ccc34)[C@H]2/C=C/c2ccccc2)cc1 | 34 |  |  |
| O=C(N[C@H](c1ccccc1)[C@H](O)C(=O)OCCCNc1ccnc2cc(Cl)ccc12)c1ccccc1 | 130 |  |  |
| CC(=O)O[C@H](C(=O)OCCCNc1ccnc2cc(Cl)ccc12)[C@H](NC(=O)c1ccccc1)c1ccccc1 | 160 |  |  |
| CN(C)c1ccc(/C=C/C(=O)c2cccc(Nc3ccnc4cc(Cl)ccc34)c2)cc1 |  |  | inhibition (INH) [7]: 94% |
| O=C(/C=C/c1ccc(Cl)cc1)c1cccc(Nc2ccnc3cc(Cl)ccc23)c1 |  |  | inhibition (INH) [7]: 94% |
| O=C(/C=C/c1ccccc1Cl)c1cccc(Nc2ccnc3cc(Cl)ccc23)c1 |  |  | inhibition (INH) [7]: 94% |

| Structure (SMILES) | IC50 (Plasmodium falciparum [5]) [nM] | IC50 (Plasmodium falciparum [6]) [nM] | further results |
| --- | --- | --- | --- |
| O=C(/C=C/c1cccc(F)c1)c1cccc(Nc2ccnc3cc(Cl)ccc23)c1 |  |  | inhibition (INH) [7]: 94% |
| O=C(/C=C/c1ccccc1)c1cccc(Nc2ccnc3cc(Cl)ccc23)c1 |  |  | inhibition (INH) [7]: 94% |
| O=C(N[C@H](c1ccccc1)[C@H](O)C(=O)NCc1cn(CCNc2ccnc3cc(Cl)ccc23)nn1)c1ccccc1 | 280 |  | IC50 (Plasmodium falciparum [4]): 390 nM |
| O=C(N[C@H](c1ccccc1)[C@H](O)C(=O)NCc1cn(-c2cccc(Nc3ccnc4cc(Cl)ccc34)c2)nn1)c1ccccc1 | 280 |  | IC50 (Plasmodium falciparum [4]): 390 nM |
| O=C(N[C@H](c1ccccc1)[C@H](O)C(=O)NCc1cn(-c2ccccc2Nc2ccnc3cc(Cl)ccc23)nn1)c1ccccc1 | 280 |  | IC50 (Plasmodium falciparum [4]): 390 nM |
| C[C@H]1[C@@H](OCCN(CCCNc2ccnc3cc(Cl)ccc23)CCO[C@H]2O[C@@H]3O[C@@]4(C)CC[C@H]5[C@H](C)CC[C@@H]([C@H]2C)[C@@]35OO4)O[C@@H]2O[C@@]3(C)CC[C@H]4[C@H](C)CC[C@@H]1[C@@]24OO3 |  |  | Activity (Plasmodium falciparum [6]): 9 nM |
| C[C@H]1[C@@H](OCC[N+]2(CCO[C@H]3O[C@@H]4O[C@@]5(C)CC[C@H]6[C@H](C)CC[C@@H]([C@H]3C)[C@@]46OO5)CCN(CCNc3ccnc4cc(Cl)ccc34)CC2)O[C@@H]2O[C@@]3(C)CC[C@H]4[C@H](C)CC[C@@H]1[C@@]24OO3 |  |  | Activity (Plasmodium falciparum [6]): 30 nM |
| C=C[C@H]1CN2CC[C@H]1C[C@H]2[C@H](OC(=O)C(C)NC(=O)c1cn(CC)c2cc3c(cc2c1=O)OCO3)c1ccnc2ccc(OC)cc12 (stereo not given in full) |  | 12 |  |
| C=C[C@H]1CN2CC[C@H]1C[C@H]2[C@H](OC(=O)C(C)NC(=O)c1cn(CC)c2ncccc2c1=O)c1ccnc2ccc(OC)cc12 (stereo not given in full) |  | 16 |  |
| C=C[C@H]1CN2CC[C@H]1C[C@H]2[C@H](OC(=O)CNC(=O)c1cn2c3c(c(N4CCN(C)CC4)c(F)cc3c1=O)CC[C@H]2C)c1ccnc2ccc(OC)cc12 |  | 12 |  |
| C=C[C@H]1CN2CC[C@H]1C[C@H]2[C@H](OC(=O)CNC(=O)c1cn(C2CC2)c2nc(N3CCN(CC)CC3)c(F)cc2c1=O)c1ccnc2ccc(OC)cc12 |  | 12 |  |
| Cc1ccc(N2C(=O)[C@@H](NCCNc3ccnc4cc(Cl)ccc34)[C@H]2/C=C/c2ccccc2)cc1 | 80 |  |  |
| Cc1ccc(N2C(=O)[C@H](NC(=O)CCCNc3ccnc4cc(Cl)ccc34)[C@@H]2/C=C/c2ccccc2)cc1 | 80 |  |  |
| Cc1ccc(N2C(=O)[C@H](NC(=O)CCCCCNc3ccnc4cc(Cl)ccc34)[C@@H]2/C=C/c2ccccc2)cc1 | 80 |  |  |
| O=C(NCCNc1cccc2cc(Cl)ccc12)N[C@H]1C(=O)N(C2CCCCC2)[C@H]1/C=C/c1ccccc1 | 42 |  |  |
| O=C(NCCCNc1cccc2cc(Cl)ccc12)N[C@H]1C(=O)N(C2CCCCC2)[C@H]1/C=C/c1ccccc1 | 42 |  |  |
| Cc1ccc(N2C(=O)[C@H](NC(=O)NCCNc3cccc4cc(Cl)ccc34)[C@@H]2/C=C/c2ccccc2)cc1 | 42 |  |  |
| Cc1ccc(N2C(=O)[C@H](NC(=O)NCCCNc3cccc4cc(Cl)ccc34)[C@@H]2/C=C/c2ccccc2)cc1 | 42 |  |  |
| Cc1ccc(N2C(=O)[C@@H](NC(=O)C(=O)NCCCCNc3ccnc4cc(Cl)ccc34)[C@H]2/C=C/c2ccccc2)cc1 | 34 |  |  |
| COc1cc(NC(C)CCCN)c2ncccc2c1 (stereo not given) [PRIMAQUINE] |  |  | IC50 (Plasmodium berghei): 7500 nM |
| C=C[C@H]1CN2CC[C@H]1C[C@H]2[C@H](O)c1ccnc2ccc(OC)cc12 [QUININE] |  | 18 |  |

— ChEMBL document CHEMBL3603813, “Quinoline-based antimalarial hybrid compounds” (Bioorg Med Chem, 2015)
